Key:
[1] = Stability of Compound (I) itself to temperature and humidity (formulation study); format: physicochemical
[2] = target: prostaglandin I2 (PGI2) receptor (Homo sapiens, UniProt P43119); conditions: known, PTL 1; cited from earlier work
Sequence of prostaglandin I2 (PGI2) receptor (P43119 whole entry): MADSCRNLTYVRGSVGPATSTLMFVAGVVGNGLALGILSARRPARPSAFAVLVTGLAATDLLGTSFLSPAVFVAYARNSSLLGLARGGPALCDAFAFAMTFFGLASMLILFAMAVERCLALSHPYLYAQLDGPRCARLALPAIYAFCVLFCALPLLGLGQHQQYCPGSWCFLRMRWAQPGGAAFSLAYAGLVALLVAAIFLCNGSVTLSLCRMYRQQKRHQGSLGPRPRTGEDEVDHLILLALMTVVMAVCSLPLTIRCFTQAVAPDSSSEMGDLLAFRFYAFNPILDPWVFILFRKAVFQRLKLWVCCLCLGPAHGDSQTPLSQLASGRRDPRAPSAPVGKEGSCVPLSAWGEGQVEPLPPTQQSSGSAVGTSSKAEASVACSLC

## CC(C)N(CCCCOCC(=O)NS(C)(=O)=O)c1cnc(-c2ccccc2)c(-c2ccccc2)n1 [Compound (I), 2-{4-[N-(5,6-diphenylpyrazin-2-yl)-N-isopropylamino]butyloxy}-N-(methylsulfonyl)acetamide]
[1]
  Stability of Compound (I) itself, in words: stable to temperature and humidity
[2]
  PGI2 receptor agonistic activity, in words: excellent
